PMC5945515, “Measuring glucocorticoid receptor expression in vivo with PET” (Oncotarget, 2018)

Legend:
huMR = biological target: T1, huMR (Homo sapiens, UniProt P08235); test: Competition binding assay on cells, human MR; conditions: displacing 3H-aldosterone on cells
T1 sequence (P08235 1-984): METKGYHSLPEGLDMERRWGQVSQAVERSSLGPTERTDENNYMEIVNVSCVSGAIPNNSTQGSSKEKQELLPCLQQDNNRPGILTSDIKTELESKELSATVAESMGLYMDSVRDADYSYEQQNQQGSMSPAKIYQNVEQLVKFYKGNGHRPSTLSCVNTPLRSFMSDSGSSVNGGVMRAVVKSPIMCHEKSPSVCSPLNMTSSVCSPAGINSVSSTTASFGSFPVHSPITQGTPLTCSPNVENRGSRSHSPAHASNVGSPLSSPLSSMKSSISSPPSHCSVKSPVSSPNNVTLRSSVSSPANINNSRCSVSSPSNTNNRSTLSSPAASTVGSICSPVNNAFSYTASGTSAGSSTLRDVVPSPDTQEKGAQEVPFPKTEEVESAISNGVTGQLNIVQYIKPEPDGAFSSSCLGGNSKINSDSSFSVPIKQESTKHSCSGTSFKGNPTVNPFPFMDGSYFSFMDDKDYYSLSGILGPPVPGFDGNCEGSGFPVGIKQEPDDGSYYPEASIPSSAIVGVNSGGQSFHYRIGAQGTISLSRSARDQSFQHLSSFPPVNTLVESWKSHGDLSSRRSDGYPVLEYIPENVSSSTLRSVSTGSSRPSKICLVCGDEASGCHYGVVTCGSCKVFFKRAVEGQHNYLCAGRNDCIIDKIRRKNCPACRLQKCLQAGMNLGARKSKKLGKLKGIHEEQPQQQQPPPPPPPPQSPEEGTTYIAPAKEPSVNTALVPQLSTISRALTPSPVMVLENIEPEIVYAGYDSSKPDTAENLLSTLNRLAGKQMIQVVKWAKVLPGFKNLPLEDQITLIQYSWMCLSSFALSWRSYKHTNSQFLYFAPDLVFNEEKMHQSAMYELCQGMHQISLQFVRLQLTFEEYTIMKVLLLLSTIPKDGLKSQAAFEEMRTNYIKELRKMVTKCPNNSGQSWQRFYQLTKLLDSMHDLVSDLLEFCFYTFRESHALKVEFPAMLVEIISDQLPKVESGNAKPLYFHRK
Description: (§1) The KD for subfamily 3 group C nuclear hormone receptors was determined on cells by displacing ^3H-steroidal agonists for the respective receptor.
(§2) The cold ligands and ^3H-steroids were co-incubated on cells in PBS at room temperature for one hour. Following incubation, the cells were washed twice with ice cold PBS and the unbound activity was retained for analysis. The cells were lysed with 1 mL of 1 M NaOH and collected. Bound and unbound fractions were counted in a liquid scintillation counter and expressed as a percentage of the total activity added per equal relative number of cells. […] The specific binding component was plotted against the log of the competing ligand and curve fit using a non-linear regression algorithm with PRISM software.

huPR = biological target: T2, huPR (Homo sapiens, UniProt P06401); test: Competition binding assay on cells, human PR; conditions: MCF7 cells, displacing 3H-progesterone
T2 construct: DU145 (GR), LNCaP-AR (AR), MCF7 (PR, ER), GL261 (mouse GR), and 9L (rat GR); endogenous in cells; host or cells: MCF7
T2 sequence (P06401 1-933): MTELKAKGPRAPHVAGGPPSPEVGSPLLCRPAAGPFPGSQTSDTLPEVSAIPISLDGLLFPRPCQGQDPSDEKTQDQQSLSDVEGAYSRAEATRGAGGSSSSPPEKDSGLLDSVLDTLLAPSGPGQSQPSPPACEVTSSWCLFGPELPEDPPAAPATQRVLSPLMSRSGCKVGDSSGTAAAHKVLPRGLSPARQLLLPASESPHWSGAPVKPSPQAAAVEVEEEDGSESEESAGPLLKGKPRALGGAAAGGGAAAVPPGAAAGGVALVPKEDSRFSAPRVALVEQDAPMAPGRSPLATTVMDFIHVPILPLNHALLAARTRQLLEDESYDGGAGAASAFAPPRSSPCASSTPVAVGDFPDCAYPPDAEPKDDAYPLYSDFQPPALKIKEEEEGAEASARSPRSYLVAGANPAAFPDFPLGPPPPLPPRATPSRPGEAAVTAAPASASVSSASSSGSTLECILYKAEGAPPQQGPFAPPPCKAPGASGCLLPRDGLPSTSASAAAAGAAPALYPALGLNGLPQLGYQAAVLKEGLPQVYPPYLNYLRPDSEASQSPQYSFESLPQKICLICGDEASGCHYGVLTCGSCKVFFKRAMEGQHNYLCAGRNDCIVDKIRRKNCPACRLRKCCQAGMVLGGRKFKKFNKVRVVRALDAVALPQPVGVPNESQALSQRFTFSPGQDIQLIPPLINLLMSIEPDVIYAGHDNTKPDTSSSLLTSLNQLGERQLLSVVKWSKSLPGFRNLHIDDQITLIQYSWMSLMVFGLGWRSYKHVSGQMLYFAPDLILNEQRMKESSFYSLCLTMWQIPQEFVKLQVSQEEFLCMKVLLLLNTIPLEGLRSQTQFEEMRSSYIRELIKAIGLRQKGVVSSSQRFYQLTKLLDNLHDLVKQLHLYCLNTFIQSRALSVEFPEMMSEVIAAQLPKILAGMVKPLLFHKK
Description: as §1, §2

huER = biological target: T3, huER (Homo sapiens, UniProt P03372); test: Competition binding assay on cells, human ER; conditions: MCF7 cells, displacing 3H-estradiol
T3 construct: DU145 (GR), LNCaP-AR (AR), MCF7 (PR, ER), GL261 (mouse GR), and 9L (rat GR); endogenous in cells; host or cells: MCF7
T3 sequence (P03372 1-595): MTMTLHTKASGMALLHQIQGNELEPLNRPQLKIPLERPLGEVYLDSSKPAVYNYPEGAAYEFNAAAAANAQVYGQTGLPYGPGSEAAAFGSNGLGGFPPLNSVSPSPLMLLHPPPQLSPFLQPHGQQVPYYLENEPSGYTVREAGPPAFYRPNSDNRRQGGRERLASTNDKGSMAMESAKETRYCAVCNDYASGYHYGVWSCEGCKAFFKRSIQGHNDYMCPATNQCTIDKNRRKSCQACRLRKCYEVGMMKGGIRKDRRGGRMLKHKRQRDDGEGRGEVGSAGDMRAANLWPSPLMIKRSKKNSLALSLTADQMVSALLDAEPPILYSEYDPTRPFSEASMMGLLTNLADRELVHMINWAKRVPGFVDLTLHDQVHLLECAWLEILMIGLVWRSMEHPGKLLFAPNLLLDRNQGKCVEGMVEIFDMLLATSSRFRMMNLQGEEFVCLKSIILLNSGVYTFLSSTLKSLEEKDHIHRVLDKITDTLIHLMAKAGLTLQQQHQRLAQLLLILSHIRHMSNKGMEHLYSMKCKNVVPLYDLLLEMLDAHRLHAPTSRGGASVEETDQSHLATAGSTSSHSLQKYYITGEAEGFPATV

C[C@]12C=CC(=O)C=C1CCC1C2[C@@H](O)C[C@@]2(C)C1CC[C@]2(O)C(=O)CNC(=O)c1ccc(F)cc1 (stereo partly drawn) [GR02]
Kd (huMR): 4.03 µM
Kd (huPR): 0.242 µM
Kd (huER): 20.7 µM

C[C@]12C=CC(=O)C=C1CCC1C2[C@@H](O)C[C@@]2(C)C1CC[C@]2(O)C(=O)COCCCF (stereo partly drawn) [GR01]
Kd (huMR): 0.212 µM
Kd (huPR): 1.06 µM
Kd (huER): 0.978 µM
